The subject of one data set is C. difficile strain 630. Type of data set: in vivo, Golden Syrian hamsters.
The subject of data set [1] is C. difficile toxin (TcdA and TcdB, ~1:1). The data set can be described thus: Murine C. difficile toxin model (intrarectal toxin). Type of data set: in vivo, C57BL/6 mice. The following applies: for IL-1β (% Inhibition) / MPO (% Inhibition): murine C. difficile toxin model, PO, 50 mg/kg body weight.
Data set [2] concerns the target T1, C. difficile full-length toxin TcdA (Clostridioides difficile, UniProt P16154).
T1 construct: C. difficile full-length toxins (TcdA or TcdB); purchased Enzo Life Sciences BML-G140-0050
The data set can be described thus: cell-based.

The test system of another data set is C. difficile. Type of data set: in vivo, C57/BL6 mice. To be noted: relapse model; for weight loss, days 8-9 after infection: PO, vancomycin 20 mg/kg once per day for five days.
The nature of data set [3]: Plasma concentrations in the murine C. difficile toxin model (LC/MS). Type of data set: in vivo. To be noted: mice, over four hours. The procedure: We monitored the plasma concentrations of Example 6a following the IR, PO and IP administrations in the murine C. difficile toxin model (Example 63). Plasma concentrations of Example 6a were determined with the use of high pressure liquid chromatography (HPLC) and mass spectrometry (MS) following the administration of Example 6a. Plasma concentration curve of Example 6a was plotted over four hours (FIG. 5). […] It is noted that reduction of the IL-1β and MPO levels as well as improved colon histopathology correlates with the plasma concentrations of Example 6a.
To determine plasma concentration of compounds, blood (˜200 μl) was drawn by retro-orbital bleed, and compound concentration was determined by liquid chromatography (LC)/mass spectrometry (MS)(AB Sciex API-3000 LC/MS/MS system).

The mark [4] stands for this setting: oral (PO), 50 mg/kg, intrarectal toxin 12.5 μg.
The mark [5] stands for this setting: intraperitoneal (IP), 50 mg/kg, intrarectal toxin 12.5 μg.
Where [6] appears, read: intrarectal (IR) co-administration with toxin (12.5 μg), 25 mg/kg, ~12.5 mg/kg, 4 hours.

Entries after “also recorded” stand apart in the source; their conditions may differ.

T1 sequence (P16154 whole entry, looked up): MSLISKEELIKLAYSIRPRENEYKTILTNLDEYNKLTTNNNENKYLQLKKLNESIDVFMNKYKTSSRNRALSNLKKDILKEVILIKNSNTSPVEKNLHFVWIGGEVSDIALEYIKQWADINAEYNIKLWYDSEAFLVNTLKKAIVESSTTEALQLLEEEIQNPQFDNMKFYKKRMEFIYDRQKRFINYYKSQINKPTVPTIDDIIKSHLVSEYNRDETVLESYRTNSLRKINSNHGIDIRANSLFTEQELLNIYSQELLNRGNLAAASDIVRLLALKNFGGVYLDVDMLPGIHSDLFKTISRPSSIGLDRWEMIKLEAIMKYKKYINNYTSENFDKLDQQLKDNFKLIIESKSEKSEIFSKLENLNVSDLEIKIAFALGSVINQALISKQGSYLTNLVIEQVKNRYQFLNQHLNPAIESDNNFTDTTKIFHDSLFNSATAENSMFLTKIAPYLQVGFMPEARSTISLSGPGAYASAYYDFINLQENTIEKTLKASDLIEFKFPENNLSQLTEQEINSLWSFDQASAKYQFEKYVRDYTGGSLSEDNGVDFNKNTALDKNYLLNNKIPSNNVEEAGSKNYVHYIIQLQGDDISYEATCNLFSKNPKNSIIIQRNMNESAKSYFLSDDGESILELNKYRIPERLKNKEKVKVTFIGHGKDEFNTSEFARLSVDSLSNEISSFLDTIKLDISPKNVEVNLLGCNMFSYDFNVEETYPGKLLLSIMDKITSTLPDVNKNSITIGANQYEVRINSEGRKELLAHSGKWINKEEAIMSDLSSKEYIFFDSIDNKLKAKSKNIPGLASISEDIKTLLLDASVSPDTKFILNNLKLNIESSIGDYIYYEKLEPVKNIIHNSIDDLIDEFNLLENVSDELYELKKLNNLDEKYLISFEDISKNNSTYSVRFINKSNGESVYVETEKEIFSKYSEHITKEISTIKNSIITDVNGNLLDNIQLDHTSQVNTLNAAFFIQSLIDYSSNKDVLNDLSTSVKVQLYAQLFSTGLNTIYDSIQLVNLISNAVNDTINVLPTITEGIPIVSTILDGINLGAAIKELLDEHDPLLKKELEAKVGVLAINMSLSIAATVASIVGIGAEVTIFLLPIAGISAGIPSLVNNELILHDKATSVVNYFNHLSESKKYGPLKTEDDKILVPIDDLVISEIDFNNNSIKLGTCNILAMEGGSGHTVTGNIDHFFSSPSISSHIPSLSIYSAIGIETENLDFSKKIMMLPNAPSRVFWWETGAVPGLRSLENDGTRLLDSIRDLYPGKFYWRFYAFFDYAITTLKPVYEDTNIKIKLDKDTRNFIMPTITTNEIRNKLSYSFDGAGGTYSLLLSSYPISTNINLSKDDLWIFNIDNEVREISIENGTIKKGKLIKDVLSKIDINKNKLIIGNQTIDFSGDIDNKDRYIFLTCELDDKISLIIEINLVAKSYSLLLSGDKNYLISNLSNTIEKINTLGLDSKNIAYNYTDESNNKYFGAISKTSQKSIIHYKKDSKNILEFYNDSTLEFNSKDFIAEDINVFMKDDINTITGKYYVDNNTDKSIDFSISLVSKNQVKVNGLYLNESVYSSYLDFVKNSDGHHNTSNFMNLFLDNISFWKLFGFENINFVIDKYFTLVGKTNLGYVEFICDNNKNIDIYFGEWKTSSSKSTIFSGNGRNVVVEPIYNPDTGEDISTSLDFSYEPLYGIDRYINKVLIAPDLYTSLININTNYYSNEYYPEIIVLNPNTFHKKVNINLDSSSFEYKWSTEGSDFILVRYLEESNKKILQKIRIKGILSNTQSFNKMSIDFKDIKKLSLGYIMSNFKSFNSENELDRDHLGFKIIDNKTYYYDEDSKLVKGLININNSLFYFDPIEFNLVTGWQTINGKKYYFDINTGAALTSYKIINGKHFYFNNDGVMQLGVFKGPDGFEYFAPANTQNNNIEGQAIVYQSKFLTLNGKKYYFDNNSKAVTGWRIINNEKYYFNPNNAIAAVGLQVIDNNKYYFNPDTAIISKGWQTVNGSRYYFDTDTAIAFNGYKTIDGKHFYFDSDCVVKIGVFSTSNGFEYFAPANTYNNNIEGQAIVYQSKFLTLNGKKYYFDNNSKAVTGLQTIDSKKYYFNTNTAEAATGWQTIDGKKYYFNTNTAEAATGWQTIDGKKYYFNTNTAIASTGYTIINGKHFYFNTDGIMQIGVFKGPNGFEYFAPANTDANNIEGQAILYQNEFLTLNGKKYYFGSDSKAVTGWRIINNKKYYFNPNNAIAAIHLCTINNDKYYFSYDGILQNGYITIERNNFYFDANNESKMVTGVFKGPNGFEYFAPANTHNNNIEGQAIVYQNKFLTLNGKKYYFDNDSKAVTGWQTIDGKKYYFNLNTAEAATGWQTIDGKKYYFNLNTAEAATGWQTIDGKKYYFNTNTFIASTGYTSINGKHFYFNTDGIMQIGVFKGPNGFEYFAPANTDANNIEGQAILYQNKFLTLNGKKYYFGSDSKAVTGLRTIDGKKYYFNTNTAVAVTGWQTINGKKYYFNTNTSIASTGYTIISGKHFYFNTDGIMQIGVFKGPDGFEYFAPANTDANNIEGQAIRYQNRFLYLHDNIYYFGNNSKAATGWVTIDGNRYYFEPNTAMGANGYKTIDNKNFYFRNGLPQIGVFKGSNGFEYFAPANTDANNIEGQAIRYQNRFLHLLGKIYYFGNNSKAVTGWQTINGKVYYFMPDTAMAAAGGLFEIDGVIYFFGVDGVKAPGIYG

For `O=C(Nc1ccc(C(F)(F)F)cn1)c1ccc(CN2C(=O)c3ccc(Cl)cc3NC(=O)[C@H]2Cc2ccccn2)cc1Cl` [Example 5ae, (R)-2-Chloro-4-((8-chloro-2,5-dioxo-3-(pyridin-2-ylmethyl)-2,3-dihydro-1H-benzo[e][1,4]diazepin-4(5H)-yl)methyl)-N-(5-(trifluoromethyl)pyridin-2-yl)benzamide], the “survival until Day 10” value in the data set with C. difficile strain 630 (Example 5ae 50 mg/kg PO twice per day for 7 days) stood at 70%. In the data set with C. difficile strain 630 (PO twice per day, Example 5ae 50 mg/kg 7 days, vancomycin 5 mg/kg 5 days), the “median survival time / protection from mortality” value was “significantly improved the median survival time”. In data set [1], the “IL-1β (% Inhibition)” value is listed as 81% and the “MPO (% Inhibition)” value is on record as 79%. Besides, in data set [1] (setting [4]), the “IL-1β in colon tissue” value is given as “reduced the levels of IL-1β”, the “MPO in colon tissue” value is reported as “reduced” and the “toxin effect on colon length” value was “reduced the C. difficile toxin-mediated effects on colon length”. Further, in data set [2], the IC50 lay within 1000 to 10000 nM. Also, in the data set on C. difficile (8 mice per group), the “mice that died/expired on Days 8-9” value is “none” and the relapsing disease entry is “prevention of relapsing disease”. Further, in the data set on C. difficile (Day 4, 8 mice per group), the “mice euthanized due to body weight loss of >20%” value turned out to be 1. For the same molecule, in the data set on C. difficile, the “weight loss, days 8-9 after infection” value was “significantly reduced weight loss 8.0, 8.5 and 9.0 days after infection”.

`COc1ccc(NC(=O)c2ccc(CN3C(=O)c4ccc(Cl)cc4NC(=O)[C@H]3Cc3ccccn3)cc2F)nc1` [Example 6a, (R)-4-((8-Chloro-2,5-dioxo-3-(pyridin-2-ylmethyl)-2,3-dihydro-1H-benzo[e][1,4]diazepin-4(5H)-yl)methyl)-2-fluoro-N-(5-methoxypyridin-2-yl)benzamide]: in data set [1] (setting [5]), the “IL-1β in colon tissue” value is reported as “decreased the C. difficile toxin-induced IL-1β; also recorded: reduced the concentrations of IL-1β”, the “MPO in colon tissue” value is “decreased; also recorded: reduced” and the “toxin effect on colon length” value was “reduced the C. difficile toxin-mediated effects on colon length; also recorded: effective in reducing the C. difficile toxin effects on colon length”. Further, in data set [1] (setting [6]), the “toxin effect on colon length” value is reported as “reduced the C. difficile toxin-mediated effects on colon length”, the “toxin-induced IL-1β in colon tissue” value was “decreased the C. difficile toxin-induced IL-1β” and the “toxin-induced MPO in colon tissue” value is reported as “decreased”. Also, in data set [1], the “IL-1β (% Inhibition)” value turned out to be 80% and the “MPO (% Inhibition)” value is listed as 81%. In addition, in data set [1] (setting [4]), the “IL-1β in colon tissue” value is “decreased the C. difficile toxin-induced IL-1β; also recorded: reduced the levels of IL-1β; also recorded: reduced the concentrations of IL-1β”, the “MPO in colon tissue” value is “decreased; also recorded: reduced” and the “toxin effect on colon length” value is listed as “reduced the C. difficile toxin-mediated effects on colon length; also recorded: effective in reducing the C. difficile toxin effects on colon length”. Further, in data set [1] (oral (PO), intrarectal toxin 12.5 μg), the colon histopathology result is on record as “prevention of tissue damage; also recorded: improved the colon histopathology”. For the same molecule, in data set [3] (IP administration, compared to IR), the plasma concentration result was “significantly higher plasma concentrations”. Besides, the plasma concentration result in data set [3] (IR administration) is recorded as “low plasma concentrations”. In addition, the plasma concentration entry in data set [3] (PO administration, compared to IR) is reported as “significantly higher plasma concentrations”. The molecule further yielded an IC50 in data set [2] of 100 to 999 nM. In addition, in the data set on C. difficile (8 mice per group), the “mice that died/expired on Days 8-9” value is reported as “none” and the relapsing disease result is reported as “prevention of relapsing disease”. Besides, the “weight loss, days 8-9 after infection” value in the data set on C. difficile is “significantly reduced weight loss 8.0, 8.5 and 9.0 days after infection”.

Broadly, the IC50 is the concentration that inhibits the measured activity by half. A lower IC50 goes with inhibition by little substance.

The values above are taken from US10669242B2 (priority 2016, dated 2020).
